Holding throughout (assay): growth of human tumour cells (NCI), 48 h
In assay [1] the test system is IGROV1 ovarian.
In assay [2] the test system is DU-145 prostate.
Assay [3] concerns KM12 colon.
The test system of assay [4] is NCI-H226 lung.
The test system of assay [5] is 786-0 renal.
The test system of assay [6] is SF-539 CNS.
Assay [7] has as its system ACHN renal.
Assay [8] has as its system HCT-116 colon.
Assay [9] concerns MDA-N.
In assay [10] the test system is COLO 205 colon.
In assay [11] the test system is SF-268 CNS.

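How tested: cells in 96-well plates exposed to compound for 48 hours at five concentrations. TGI: total growth inhibition.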 Some results are limits rather than exact numbers.

For `CC(=O)NC1C(OCc2ccccc2)OC(CO)C(O)C1OCC(=O)N[C@@H](C)C(=O)N[C@H](CCC(=O)NCCCNc1ccc([N+](=O)[O-])c2[nH]c3ccccc3c(=O)c12)C(N)=O` (stereo partly specified), the TGI in assay [1] is more than 100 µM; in assay [2], more than 100 µM; in [3], more than 100 µM; in assay [4], 65.8 µM; in assay [5] it was more than 100 µM; in assay [6], more than 100 µM. The TGI in assay [7], in assay [8], in [9] and in assay [10] was more than 100 µM each time.
For the compound `COc1ccc2c(c1)CCC/C2=N\NS(=O)(=O)c1c(C)cc(C)cc1C`, the TGI in [1] is 55 µM; in assay [2] it was 68.1 µM; in assay [3] it was 32.9 µM; in assay [4], 59.8 µM; in assay [5], 37.8 µM; in [6] it was 41.5 µM. Further, the TGI was more than 100 µM in [7], 35.6 µM in [8], more than 100 µM in assay [9] and 57.2 µM in assay [10].
For the compound `COc1ccccc1NC(=S)N/N=C/c1cccc(C)n1`, the TGI in assay [1] is more than 95.8 µM; in assay [2], more than 100 µM; in assay [3] it was more than 100 µM; in [4], 37.3 µM; in assay [5] it was 96.9 µM; in [6] it was 28.1 µM. In addition, the TGI in assay [7] is 25.6 µM; in assay [8] it was more than 100 µM; in assay [9], more than 100 µM; in [10] it was more than 100 µM; in assay [11], more than 100 µM.
Turning to `CC(C)(C)C1=C(Br)C(OC(=O)C(F)(F)F)(C(C)(C)C)OP1(=O)c1ccccc1` (stereo unspecified), the TGI in assay [1], in assay [2], in [3], in assay [4], in [5] and in assay [6] was more than 100 µM each time. In addition, the TGI in [7] is more than 100 µM; in [8] it was more than 100 µM; in [9], more than 100 µM; in assay [10] it was 34 µM; in assay [11] it was more than 100 µM.
Regarding `CC(=O)c1sc2[n+](c1C)C(=O)/C(=C\c1ccccc1Cl)S2`, the TGI came to 33.8 µM in assay [1]; 33.6 µM in assay [2]; 35.2 µM in assay [3]; 30.9 µM in assay [4]; 38.2 µM in assay [5]; 44.7 µM in assay [6]. Further, the TGI in assay [7] amounted to 36 µM; in assay [8], 37.6 µM; in assay [9], 44 µM; in assay [10], 28 µM; in assay [11], 64.5 µM.
For the compound `c1cc2c(cc1C1=NCCN1)c1cc(C3=NCCN3)ccc1n2CC1CCCCC1`, the TGI in assay [1] was 69.7 µM; in assay [2], 77.1 µM; in assay [3], more than 100 µM; in assay [4], 48.7 µM; in assay [5] it was 96.4 µM; in assay [6], 19.2 µM. The TGI in [7] was more than 100 µM; in assay [8], 51.1 µM; in assay [9], more than 100 µM; in [10] it was 20.4 µM; in assay [11] it was 22.2 µM.
Consider `CCOC(=O)C(C/C=C/CO)N(C)C(=O)OC(C)(C)C` (stereo unspecified), for which the TGI in [1], in assay [2], in assay [3], in assay [4], in [5] and in assay [6] was more than 100 µM in each case. The TGI in assay [7], in assay [8], in assay [9], in assay [10] and in assay [11] was more than 100 µM in each case.
With `O=c1[nH]c2ccc([N+](=O)[O-])cc2nc1/C=C(\O)c1ccccc1`, the TGI was more than 100 µM in [1]; more than 100 µM in [2]; more than 100 µM in [3]; more than 100 µM in assay [4]; 20.6 µM in assay [5]; 69.8 µM in [6]. Also, the TGI in assay [7] is more than 100 µM; in assay [8] it was more than 100 µM; in assay [9] it was more than 100 µM; in [10], more than 100 µM; in assay [11], 58.3 µM.
With `CSCCCNC(=O)[C@H](CSC)NC(=O)c1csc(CCNC(=O)[C@@H](NSc2ccccc2[N+](=O)[O-])C(C)O)n1` (stereo partly specified), the TGI in assay [1], in [2], in assay [3], in [4], in assay [5] and in [6] was more than 100 µM in each case. The TGI in assay [7], in assay [8], in [9], in [10] and in assay [11] was more than 100 µM in each case.
Consider `CCNC(=S)N/N=C(\C)c1cccc(C)n1`, for which the TGI is more than 100 µM in assay [1]; 73.1 µM in [2]; more than 100 µM in [3]; 47.9 µM in assay [4]; more than 100 µM in assay [5]; 45.1 µM in [6]. Further, the TGI in assay [7] is more than 100 µM; in [8], 53.1 µM; in [9], more than 100 µM; in assay [10], more than 100 µM; in assay [11], 17.2 µM.
In the case of `Cc1ccc2c(c1C)C(=O)/C(=C/c1cccc(C)c1C(=O)O)C2`, the TGI in assay [1], in [2], in [3], in [4], in [5] and in assay [6] was more than 100 µM in each case. Also, the TGI in assay [7], in assay [8], in assay [9], in assay [10] and in [11] was more than 100 µM in each case.
For `CN(C)CCNC(=O)c1c(O)ccc2c1c1c(n2CCc2ccccc2)C(=O)c2ccccc2C1=O`, the TGI worked out at 21.8 µM in assay [1]; 20.9 µM in assay [2]; 15.9 µM in assay [3]; 35.2 µM in assay [4]; 11.3 µM in [5]; 11.1 µM in assay [6]. The TGI in assay [7] came out at 23 µM; in assay [8], 10.5 µM; in assay [9], 5.34 µM; in assay [10], 34.4 µM; in [11] it was 15 µM.
Take `N#Cc1nc(-c2cccc(-c3nc(C#N)c(N)o3)n2)oc1N`: the TGI in assay [1], in assay [2], in assay [3], in assay [4], in assay [5] and in [6] was more than 100 µM each time. Moreover, the TGI in assay [7], in [8], in assay [9], in [10] and in [11] was more than 100 µM each time.
As to `Nc1cc2c3c(cccc3c1)C(=O)N(c1ccc(OCCN3CCCC3)cc1)C2=O`, the TGI was 36.4 µM in [1]; more than 92.8 µM in [2]; 31.1 µM in assay [3]; 33.2 µM in assay [4]; 31.5 µM in assay [5]; 27.8 µM in assay [6]. Moreover, the TGI is 26.5 µM in [7]; 40.9 µM in [8]; 34.7 µM in assay [9]; 35.2 µM in assay [10]; more than 59.7 µM in assay [11].
Consider `COc1cc(/C=N/NC2=NCCN2)ccc1O`, for which the TGI in assay [1], in [2], in assay [3], in assay [4], in assay [5] and in [6] was more than 100 µM throughout. For the same compound, the TGI in assay [7], in [8], in assay [9], in assay [10] and in assay [11] was more than 100 µM in each case.
As for `COC(=O)C(NC(=O)OC(C)(C)C)P(=O)(OC)OC` (stereo unspecified), the TGI in assay [1], in assay [2], in [3], in [4], in [5] and in assay [7] was more than 100 µM each time. For the same compound, the TGI in [8], in [9], in assay [10] and in assay [11] was more than 100 µM in each case.
Consider `NN/C(=N\S(=O)(=O)c1ccc(S(=O)(=O)c2ccccc2)s1)Nc1ccc(Cl)cc1`, for which the TGI in [1] was 88.7 µM; in [2], 76.5 µM; in assay [3] it was 49.3 µM; in [4], more than 100 µM; in assay [5], 54.2 µM; in assay [6] it was more than 100 µM. For the same compound, the TGI is more than 100 µM in assay [7], 32.5 µM in assay [8], 41.8 µM in [9] and 46.2 µM in assay [10].
In the case of `CC(NC(=O)C(Cc1ccc(OC(=O)c2ccccc2)cc1)NC(=O)OC(C)(C)C)C(=O)NCC(=O)NC(Cc1ccccc1)C(=O)NN` (stereo unspecified), the TGI in assay [1], in assay [2], in assay [3], in [4], in [5] and in assay [6] was more than 100 µM throughout. Besides, the TGI was more than 100 µM in assay [7]; more than 100 µM in assay [8]; more than 100 µM in assay [9]; 53.2 µM in [10]; more than 100 µM in assay [11].
Turning to `O=C1C=C(N2CCN(CCOCCO)CC2)C(=O)c2c(O)ccc(O)c21`, the TGI in assay [1] was found to be 9.9 µM; in assay [2], 10.5 µM; in [3], 26.5 µM; in assay [4], 35.5 µM; in [5] it was 21.7 µM; in assay [6], 25.6 µM. Also, the TGI in assay [7] was found to be 20.1 µM; in assay [8], 7.44 µM; in assay [9], 3.29 µM; in assay [10] it was 2.86 µM; in assay [11], 37.1 µM.
Regarding `CCOC(=O)/C=C/[C@@H](CC)O[Si](C(C)C)(C(C)C)C(C)C`, the TGI in [1], in assay [2], in assay [3], in assay [4], in [5] and in assay [6] was more than 100 µM in each case. Besides, the TGI in [7], in [8], in [9], in assay [10] and in [11] was more than 100 µM each time.
As to `CC(C)(C)[Si](C)(C)OC[C@H](/C=C\CCCC(=O)O)NC1(c2ccccc2)c2ccccc2-c2ccccc21`, the TGI is 97 µM in assay [1]; more than 100 µM in assay [2]; 48.8 µM in [3]; 26 µM in assay [4]; 30.3 µM in assay [5]; 31.3 µM in assay [6]. The TGI in assay [7] was 49.5 µM; in [8], 44.8 µM; in assay [9] it was more than 100 µM; in assay [10], 26.5 µM; in [11], 35.4 µM.
As to `COc1ccc(-n2cnc3c(NC(Cc4ccccc4)C(=O)O)ncnc32)cc1` (stereo unspecified), the TGI in [1], in [2], in [3], in assay [4], in assay [5] and in assay [7] was more than 100 µM in each case. The TGI in assay [8], in assay [9], in assay [10] and in [11] was more than 100 µM each time.
Consider `C=CC[C@H](N=C(SC)SC)C(=O)N1C(=O)N(C)[C@@H](C)[C@H]1c1ccccc1`, for which the TGI in assay [2], in assay [3], in assay [4], in assay [5], in assay [6] and in [7] was more than 100 µM throughout. Moreover, the TGI in [8], in assay [9], in assay [10] and in assay [11] was more than 100 µM in each case.
`NS(=O)(=O)c1ccc(N=Nc2ccc(O)c(C(=O)O)c2)cc1`: the TGI in assay [1], in [2], in [3], in assay [4], in assay [5] and in assay [7] was more than 100 µM throughout. The TGI in assay [8], in assay [9], in assay [10] and in assay [11] was more than 100 µM each time.
As to `CCOC(=O)Cn1c(=O)c(C)cn(COCCO)c1=O`, the TGI in assay [1], in assay [2], in assay [3], in assay [4], in [6] and in [7] was more than 100 µM throughout. Besides, the TGI in assay [9], in assay [10] and in [11] was more than 100 µM each time.

For the origin of these results see PubChem BioAssay (NCI).
